US6887468B1 (Board of Regents, The University of Texas System, priority 1999, dated 2005)
Entries after “also recorded” stand apart in the source; their conditions may differ.

How the values were obtained:
[1] = system: VEGFR2 (KDR/Fc); assay: Co-precipitation assay, VEGF with VEGFR2/Fc in solution; type: binding; conditions: F(ab′)2
Experimental: 200 ng of soluble forms of VEGFR1 (Flt-1/Fc) or VEGFR2 (KDR/Fc, R&D Systems, Minneapolis, Minn.) were added for a total volume of 50 μl and incubated for 2 hrs. The receptor/Fc constructs were precipitated using Protein A-sepbarose beads and the resulting precipitate was washed 4 times with binding buffer.
Reducing sample buffer was added to the pellet and supernatant of each reaction and both were analyzed by 12% SDS-PAGE and transferred to PVDF membranes. […] The soluble receptor/Fc constructs were also detected by using peroxidase-conjugated goat anti-human Fc (Kirkegaard & Perry Laboratories, Inc.)
The receptor/Fc constructs were precipitated by incubation with Protein A sepharose beads. The precipitate was washed and resuspended in reducing sample buffer and separated by 12% SDS-PAGE and transferred to PVDF.

[2] = system: human NCI-H358 NSCLC tumors; assay: Localization of 2C3-GUS after i.v. injection into tumor-bearing SCID mice; type: in vivo
[3] = Blood clearance of radioiodinated 2C3-GUS after intravenous injection; type: in vivo, mice; conditions: 125I-labelled
From the text: 2C3-GUS was radioiodinated with ^125I to a specific activity of 5×10^6 cpm/μg.

[4] = biological target: T1, denatured VEGF121 and VEGF165 (Homo sapiens, UniProt P15692); assay: Western blot analysis of anti-VEGF antibodies; type: binding; conditions: reducing and non-reducing conditions
T1 sequence (P15692 27-191 isoform P15692-4): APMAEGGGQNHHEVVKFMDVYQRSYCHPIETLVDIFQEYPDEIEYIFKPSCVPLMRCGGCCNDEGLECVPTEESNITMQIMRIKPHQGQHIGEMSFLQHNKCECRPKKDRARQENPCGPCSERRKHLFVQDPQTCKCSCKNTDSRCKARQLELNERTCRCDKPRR
Experimental: The nitrocellulose membrane was blocked using Sea-Block PP82-41 (East Coast Biologics, Berwick, Me.), and probed with primary antibodies using a mini-blotter apparatus (Immunetics, Cambridge, Mass.). The membranes were developed after incubation with the appropriate peroxidase-conjugated secondary antibody by ECL enhanced chemiluminescence.
Western blot analyses of anti-VEGF antibodies were conducted by separating VEGF165 in the presence of 5% FCS using SDS-PAGE on a 12% gel and analyzing by a standard western blotting protocol using ECL detection. The primary antibodies were incubated with the nitrocellulose membrane using a multi-lane mini-blotter apparatus.

[5] = system: KDR; assay: 125I-VEGF binding studies on KDR expressing endothelial cells (ABAE cells); set-up: species or system bovine
[6] = system: NCI-H358 NSCLC and HT29 colon adenocarcinoma xenografts and normal organs; assay: In vivo localization in mice bearing human tumor xenografts (immunohistochemistry 24 h after i.v. injection); set-up: species or system mouse
Experimental: Tumors were grown subcutaneously in immunocompromised mice (NCI-H358 NSCLC in nu/nu mice and HT29 colon adenocarcinoma in SCID mice) until the tumor volume was approximately 1 cm^3. 100 μg of unlabeled antibody for studies using SCID mice, or 100 μg of biotinylated antibody for studies using nude mice, was injected intravenously via a tail vein. Twenty four hours later, the mice were anesthetized, perfused with PBS, and tumor and organs including heart, lungs, liver, kidneys, intestines and spleen were collected and snap frozen in liquid nitrogen.
The tumor and organs from each mouse were sectioned on a cryostat and stained for antibody immunohistochemically as above, with the exception that sections from the nude mice were developed using peroxidase labeled streptavidin-biotin complex (Dako, Carpinteria, Calif.) and the sections from the SCID mice were developed using two peroxidase-conjugated secondary antibodies, a goat anti-mouse IgG+IgM followed by a rabbit anti-goat IgG.
100 μg of GV39M and 3E7 or isotype-matched control IgG were injected into SCID mice bearing HT29 human colonic adenocarcinomas. Twenty-four hours later, the mice were sacrificed, exsanguinated and the tumors and tissues were removed.

[7] = system: VEGFR1 (FLT-1), Flt-1/Fc; assay: ELISA: VEGF binding to VEGFR1-coated wells in presence of antibody; conditions: summary table
Experimental: (§1) FIG. 2. […] The plate was then incubated with rabbit anti-VEGF (A-20, Santa Cruz Biotechnology, Inc.) at 1 μg/ml and developed using a peroxidase conjugated goat anti-rabbit antibody. Assays were performed in triplicate. Mean percent binding in the absence of antibody is shown, together with the standard deviation.
(§2) The assay was also performed by coating wells of a microtiter plate with either control or test IgG.

[8] = system: NCI-H358 NSCLC; assay: In vivo tumor growth inhibition, newly-implanted NCI-H358 NSCLC; set-up: species or system nu/nu mice
Experimental: (§3) FIG. 3A and FIG. 3B. […] FIG. 3A: 1×10^7 NCI-H358 NSCLC cells were injected subcutaneously into nu/nu mice on day 0. FIG. 3B: 5×10^6 A673 rhabdomyosarcoma cells were injected subcutaneously into nu/nu mice on day 0. Mice were injected i.p. with the indicated IgG on day 1 and 2 times/week thereafter. […] Tumors were measured 2-3 times per week. Mean and standard error is shown for the duration of the study in FIG. 3A, while data for the last day of the study (day 26) is shown in FIG. 3B.
(§4) Nu/nu mice were injected subcutaneously with either 1×10^7 NCI-H358 NSCLC cells or 5×10^6 A673 rhabdomyosarcoma cells on day 0. […] The tumors were then measured twice per wk for a period of approximately six wk for the NCI-H358 bearing mice and four wk for the A673 bearing mice. Tumor volume was calculated according to the formula: volume=L×W×H, where L=length, W=width, H=height.

[9] = biological target: T2, VEGF alone or VEGF associated with sFlk-1 (VEGF:Flk-1) (Homo sapiens, UniProt P15692); assay: Indirect and capture ELISA for reactivity with VEGF alone or VEGF associated with sFlk-1; type: binding; conditions: VEGF alone or VEGF:Flk-1
T2 sequence (P15692 27-191 isoform P15692-4): T1 sequence (P15692 27-191 isoform P15692-4)
Experimental: The Flk-1/SEAP protein was produced and purified as described by Tessler etal. (1994). Basically, the extracellular domain of Flk-1 (sFlk-1) was produced in Spodoptera frugiperda (Sf9) cells and purified by immunoaffinity techniques utilizing a monoclonal anti-Flk-1 antibody (1A8). sFlk-1 was then biotinylated and bound on avidin-coated plates.
The reactivity was determined as described above for the initial screening.
A capture ELISA was also developed. In the capture ELISA, microtiter plates were coated overnight at 4° C. with 100 ng of the indicated antibody. […] Streptavidin conjugated to peroxidase (Kirkegaard & Perry Laboratories, Inc.), diluted 1:2000, was used as a second layer and developed.

[10] = biological target: T3, mouse VEGF (Mus musculus, UniProt Q00731); assay: Indirect ELISA with mouse VEGF; type: binding
T3 sequence (Q00731 27-190 isoform Q00731-2): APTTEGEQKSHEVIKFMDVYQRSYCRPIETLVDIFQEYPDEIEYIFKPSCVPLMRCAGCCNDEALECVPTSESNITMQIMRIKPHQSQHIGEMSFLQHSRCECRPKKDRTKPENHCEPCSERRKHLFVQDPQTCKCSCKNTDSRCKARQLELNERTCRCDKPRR

[11] = system: VEGFR2 (KDR/Flk-1), sFlk-1-biotin; assay: ELISA: VEGF binding to VEGFR2-coated wells in presence of antibody; set-up: species or system mouse
Experimental: as §1, §2

[12] = system: VEGF-mediated growth of ABAE cells; assay: Endothelial cell growth assay (MTS), VEGF-mediated growth of ABAE cells; type: cell-based, bovine; conditions: summary table
Experimental: ABAE cells were grown in the presence of the various indicated antibodies and 0.5 nM VEGF. Growth after 4 days was determined colorimetrically by the enzymatic conversion of MTS (Owen's reagent) to a yellow formazan. […] Background was determined by growing cells without VEGF or antibody and was subtracted from the control and sample wells.
Adult bovine aortic endothelial (ABAE) cells were plated into 96-well tissue culture plates at 1500 cells/well and grown in the presence of 0.5 nM human VEGF with the addition of the various sample and control antibodies. Control wells received media with or without VEGF.
After 4 days of incubation, the cells were quantified by an MTS (3-(4,5-dimethylthiazol-2-yl)-5-(3-carboxylmethoxyphenyl)-2-(4-sulfophenyl)-2H-tetrazolium, inner salt) conversion assay, where MTS conversion to a formazan is proportional to cell number and can be followed by absorbance at 490 nm (Cell Titer 96 AQueous One Solution Cell Proliferation Assay, Promega, Madison, Wis.). The assay was performed according to the manufacturer's instructions.
Cell growth was estimated by subtracting the MTS conversion in cultures to which VEGF was not added. Results were expressed as a percentage of the MTS conversion in control cultures to which only VEGF was added (Buttke et al., 1993).

[13] = system: NCI-H358 NSCLC tumors; assay: Treatment of established NCI-H358 NSCLC tumor xenografts; type: in vivo, nu/nu mice
Experimental: FIG. 4. […] Mean tumor volume along with the SEM over 116 days is shown.
(§5) FIG. 5A and FIG. 5B. […] Treatments (T) were 100 μg of the IgG given i.p., except for the initial treatment that consisted of 500 μg of the IgG given i.v. Mean tumor volume along with the SEM is shown. At the end of the study (day 116), the mice were sacrificed and the tumors dissected out and weighed. […] The mice were treated every other day as indicated (T). […] Mean tumor volume along with the SE is shown.
(§6) Male nu/nu mice bearing subcutaneous NCI-H358 tumors or HT1080 fibrosarcoma 200-400 mm^3 in size were injected i.p. with test or control antibodies. The NCI-H358 bearing mice were treated with 100 μg of antibodies per injection three times a week during the first week and twice a week during the second and third week. The mice were then switched to 50 μg per injection every five days. The HT1080 bearing mice were treated with 100 μg of the indicated antibody or saline every other day throughout the duration of the study. In both studies, mice were sacrificed when their tumors reached 2500 mm^3 in size or earlier if tumors began to ulcerate.
Doses were 50-100 μg every 3-5 days. […] In addition to measuring mean tumor volume (FIG. 4), photographs of the mice from each treatment group were also taken to show the differences in tumor size and appearance at the end of the study.

[14] = system: A673 rhabdomyosarcoma; assay: In vivo tumor growth inhibition, newly-implanted A673 rhabdomyosarcoma; set-up: species or system nu/nu mice
Experimental: as §3, §4

[15] = system: VEGFR2; assay: VEGF-induced phosphorylation of VEGFR2 in PAE/KDR cells (immunoprecipitation, western blot); type: cell-based, porcine aortic endothelial cells transfected with VEGFR2; conditions: antibody 100 nM
Experimental: PAE/KDR, PAE/FLT, and bEND.3 cells were grown to 80-90% confluency in 100 mm tissue dishes in media containing 5% serum. The cells were then serum starved for 24 hours in media containing 0.1% serum. After pretreatment with 100 […] in PBS for 30 min, the cells were incubated with 5 nM (200 ng/ml) VEGF165, 5 nM (100 ng/ml) bFGF (R&D Systems, Minneapolis, Minn.), or A673 tumor conditioned media in the presence or absence of control or test antibodies for additional 15 min.
The cells were then washed with ice-cold PBS containing 10 mM EDTA, 2 mM sodium fluoride, and 2 mM sodium orthovanadate and lysed in lysis buffer (50 mM Tris, 150 mM NaCl, 1% Nonidet P40, 0.25% sodium deoxycholate, 0.1% CHAPS, 5 mM EDTA, 1.5 mM MgCl2, 2 mM sodium fluoride, 2 mM sodium orthovanadate, 10% glycerol and protease inhibitors (Complete Protease Inhibitor Cocktail tablets, Boehringer Mannheim)). The lysates were clarified by centrifugation and resulting supematant used for immunoprecipitation.
The reactions using the chicken anti-FLT-1 antibody were subsequently incubated with a bridging goat anti-chicken antibody (Kirkegaard and Perry Laboratories, Inc.) for 1 h at 4° C. […]

[16] = system: HT1080 fibrosarcoma; assay: Treatment of established HT1080 fibrosarcoma xenografts; type: in vivo, nu/nu mice; conditions: 100 μg every two days
Experimental: as §5, §6

[17] = system: progressive disease in cancer patients; conditions: clinical trials; cited from earlier work
[18] = dose-related; cited from earlier work
[19] = 100 μg i.p. 2 times per wk from day 1, controls approximately 1000 mm^3

2C3 F(ab′)2: F(ab′)2 fragment of 2C3
Blocking of VEGF binding to VEGFR2/Fc in solution [1]: blocked the binding of VEGF to VEGFR2/Fc

2C3-GUS
Localization after i.v. injection ([2]; immunohistochemistry on frozen tumor sections): specifically localized to tumor vasculature and surrounding tumor stroma
Staining of normal tissues ([2]; mouse, in vivo): Normal tissues were unstained
t½ α [3]: about 6 hours
t½ β [3]: about 25 hours

2C3: anti-VEGF monoclonal IgG2a,k from hybridoma ATCC PTA 1595; blocks VEGF binding to VEGFR2 but not VEGFR1
Reactivity with VEGF on western blot [4]: react with denatured VEGF121 and VEGF165 under reducing and non-reducing conditions
Blocking of 125I-VEGF binding to KDR [5]: blocks VEGF from binding to KDR in a concentration dependent manner
Immunohistochemical Reactivity, Tumor ([6]; 24 hours after i.v. antibody, 3E7 and GV39M bound tumor vascular endothelium, 2C3 tumor stroma): 3+
In vivo localization in H358 human NSCLC tumor ([6]; biotinylated antibody, i.v., nu/nu mice): intense staining of connective tissue surrounding the vasculature
In vivo localization in HT29 human tumor model ([6]; mouse, in vivo): localized strongly to the connective tissue
In vivo normal mouse tissue localization ([6]; mouse, in vivo): None
Blocks VEGF from binding to VEGFR1 [7]: No
Tumor growth retardation in NCI-H358 tumor model, lower dose ([8]; 10 μg twice per wk): less marked
Final tumor volume [8, 19]: approximately 150 mm^3
Predominant Reactivity [9]: VEGF
Reactivity with mouse VEGF [10]: all the antibodies except 2C3 react with mouse VEGF
Reduction in VEGF binding to VEGFR2 ([11]; 100 fold molar excess over VEGF): about 74%
VEGF bound to VEGFR2-coated wells, % of amount bound in absence of antibody ([11]; 1000-fold molar excess over VEGF): ~19%
Reduction in VEGF binding to VEGFR2 ([11]; 1000 fold molar excess over VEGF): about 81%
Blocks VEGF from binding to VEGFR2 ([11]; summary table): Yes
Blocks VEGF-induced proliferation [12]: Yes
Mean tumor weight at end of study (day 116) ([13]; 100 μg i.p., initial treatment 500 μg i.v.): 0.054 g
Mean tumor volume after approximately 14 wk of treatment ([13]; 100 μg, start 480 mm^3 (2C3), 428 mm^3 (3E7)): 84 mm^3
Mean tumor volume at the end of the study as % of initial mean tumor volume ([13]; 50-100 μg i.p. every 3-5 days, approximately 10 weeks): 30%
Decrease in mean tumor volume ([13]; approximately 14 wk of treatment, 100 μg): approximately 80%
Regression of established NCI-H358 tumors ([13]; mouse, in vivo): caused significant tumor regressions; also recorded: slow regression of the tumors
Final tumor volume [14, 19]: approximately 150 mm^3
Effect on growth of A673 tumors, lower doses ([14]; 10 or 1 μg twice per wk): did slow the growth of A673 tumors
Blocking of VEGF-induced phosphorylation of VEGFR2 [15]: block VEGF-induced phosphorylation of VEGFR2 in PAE/KDR cells
Effect on growth of established HT1080 tumors [16]: arrested the growth of the tumors

NC(=O)c1nnn(Cc2cc(Cl)c(C(=O)c3ccc(Cl)cc3)c(Cl)c2)c1N [CAI, carboxyamidotriazole]
Disease stabilization, share of cancer patients having progressive disease before treatment [17]: 49%

recombinant, humanized form of Genentech's anti-VEGF antibody: recombinant, humanized form of Genentech's anti-VEGF antibody evaluated in monkeys (Ryan et al., 1999)
Preclinical safety finding in monkeys [18]: physeal dysplasia
